Bridges are numbered along the chain shown (N, C = ends). [ ]: non-standard residue; d: D form. S5 = C=CCCC[C@](C)(N)C(=O)O
Assays:
[1] = tested on: Muc5ac secretion from HAECs; experiment: Mucin (Muc5ac) secretion assay in HAECs; type: cell-based, human; conditions: for effect on stimulated secretion / reduction of stimulated (IL-13+ATP) Muc5ac secretion: 10 μM peptide, 30 min pre-incubation, metaplastic conditions; for reduction of stimulated Muc5ac secretion: metaplastic HAECs
Method: Cell culture. […] Growth medium was replaced every two days. […] The apical medium was replaced after 48 h.
Mucin secretion assay in HAECs. […] In brief, for the 24 h peptide treatment, 20 μl of DMEM+/−100 μM peptides was added to the apical surface 24 h before stimulation. On the day of the assay, cells were washed 5 times with 100 μl DMEM for 1 h for each wash on the apical side. Apical supernatants were collected after every wash ([…]), then 100 μl of DMEM+/−100 μM peptides was added to the apical surface and HAECs incubated for 15 min before collecting the supernatant (baseline wash). HAECs were then incubated for an additional 15 min with 100 μl DMEM+/−100 μM ATP (Sigma) before collection of supernatants (experimental washes). Following sample collection, cells were lysed in 100 μl of lysis buffer (lysate) containing 50 mM Tris-HCl pH 7.2, 1 mM EDTA, 1 mM EGTA, 1% Triton-X (Sigma), protease inhibitor cOmplete mini EDTA-free and phosphatase inhibitor PhosSTOP (Roche, Germany). The protocol was adapted for 30 min peptide treatment as follows. After wash 5, 100 μl of DMEM+/−10 μM or 100 μM of peptides was added to the apical surface and HAECs incubated for 30 min (baseline wash). HAECs were then incubated for 30 min with 100 μl DMEM+/−100 μM ATP to collect experimental washes.
All samples were diluted 1:10 in PBS (washes and cell lysates) and 50 μl of each sample were vacuum-aspirated onto a 0.45 μm pore nitrocellulose membrane using the Bio-Dot® MicrofiltrationApparatus (Bio-Rad). […] All steps were performed at room temperature. Fluorescent signals were acquired using the Odyssey® Fc Imaging System (Li-Cor®, USA) and quantified using ImageJ (v.2.0.0; NIH, USA). Equal volumes of samples were loaded on the gels for control and peptide treatments. […] Stimulated secretion is therefore normalized to baseline secretion within individual filters to account for filter to filter heterogeneities.

[2] = tested on: mouse airway epithelial cells; experiment: Mucin secretion without secretagogue after peptide aerosol in mice with mucous metaplasia; type: in vivo
Method: To investigate whether SP9 could have therapeutic benefit in vivo, SP9 conjugated to CPPs and fluorophores was introduced into mouse airways using a microsprayer inserted into the distal trachea under direct visualization with a laryngoscope. […] All subsequent studies of airway mucin secretion were therefore performed in the distal axial bronchus. […] This effect was not observed with the injection of buffer alone.
The peptide solution was injected into the airway under pressure to generate a droplet aerosol. A high concentration of peptides was used in these experiments in part because the solution is expected to be in contact with the airway epithelium only briefly and to mostly end up in the alveolar region.

[3] = tested on: fractional secretion of intracellular mucin in mouse airways; experiment: Stimulated mucin secretion in mice (IL-13, then methacholine); type: in vivo; conditions: pretreatment, aerosol 200 μM 30 min before secretagogue, IL-13 mice
Method: Mucin secretion and airway mucus occlusion in mice. The efficiency of stimulated mucin secretion and the extent of mucus accumulation in the airway lumen of Syt2 mutant mice were measured as described previously (Jaramillo et al, 2019). Briefly, to increase intracellular mucin content (i.e., induce mucous metaplasia), 3 μg IL-13 (BioLegend) in 40 μl PBS was instilled every other day×3 into the posterior pharynx of mice under isoflurane anesthesia to be aspirated during inhalation. […] Fractional mucin secretion was calculated as the percentage […] mucin content of mice of the same genotype treated only with IL-13. To measure intracellular airway epithelial mucin content, lungs were inflated via the trachea with 10% neutral buffered formalin to 20 cm water pressure for 24 h at 4° C., then embedded in paraffin. […] Images were acquired using an upright microscope (Olympus BX 60) with a ×40 NA 0.75 objective lens, and intracellular mucin was measured around the circumferential section of the axial bronchus using ImagePro (Media Cybernetics). Images were analyzed by investigators blinded to mouse genotype and treatment, and data are presented as the epithelial mucin volume density, signifying the measured volume of mucin overlying a unit area of epithelial baseline lamina. […]

[4] = tested on: airway lumenal mucus in mouse lung; experiment: Airway lumenal mucus accumulation in mice; type: in vivo; conditions: pretreatment, aerosol 200 μM, IL-13 then methacholine
Method: To measure airway lumenal mucus content, mucous metaplasia was induced as above, then mucin secretion and bronchoconstriction were induced by exposure for 10 min to an aerosol of 150 mM methacholine. Lungs were harvested and fixed by immersion for 48 h at 4° C. to avoid displacement of lumenal mucus and using methanol-based Carnoy's solution (methacarn) for fixation to minimize changes in mucus volume. A single transverse 5 μm section was taken through the axial bronchus of the left lung between lateral branches 1 and 2 and stained with PAFS as above to evaluate intracellular mucin to ensure secretion had been stimulated. […]
To measure the efficiency of stimulated mucin secretion and the extent of mucus accumulation in the airway lumen of WT mice treated with peptides, the same procedures as those used for analysis of Syt2 mutant mice were followed, except that both outcomes were measured in the same mouse by fixation of the left lung by inflation with formalin to measure mucin secretion and fixation of the right lung by immersion in methacarn to measure mucus accumulation. […] In addition, a MicroSprayer Aerosolizer (Penn-Century) was used for peptide delivery to the airways, secretion was measured in the left axial bronchus at a site 3 mm distal to the site used in the Syt2 mutant mice, and mucus accumulation was measured in the right caudal lobe.

Syt2 = Syt2 (UniProt P29101 1-422, limits assumed); experiment: cell-based or functional assay
Chain of Syt2 (P29101 whole entry): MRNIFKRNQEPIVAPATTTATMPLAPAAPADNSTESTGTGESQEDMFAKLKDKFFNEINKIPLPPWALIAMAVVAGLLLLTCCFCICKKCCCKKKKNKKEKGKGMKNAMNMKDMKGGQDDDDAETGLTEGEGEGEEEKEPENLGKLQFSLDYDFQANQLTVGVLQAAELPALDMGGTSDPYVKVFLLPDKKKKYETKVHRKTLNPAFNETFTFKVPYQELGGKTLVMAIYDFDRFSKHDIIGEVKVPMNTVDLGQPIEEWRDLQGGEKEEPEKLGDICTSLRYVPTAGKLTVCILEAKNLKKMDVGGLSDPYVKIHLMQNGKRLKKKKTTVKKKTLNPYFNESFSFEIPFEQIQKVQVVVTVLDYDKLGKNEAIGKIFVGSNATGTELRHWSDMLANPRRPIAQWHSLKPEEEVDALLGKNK

[5] = 100 μM peptide for 24 h before stimulation

Ac-EE(S5)KDA(S5)IR(S5)LVM(S5)DEQ-(C/Cy3Mal)-amide (Ac-EE[S5]KDA[S5]IR[S5]LVM[S5]DEQC-NH2; staple 10-14, 3-7; also: Cy3 maleimide on C-terminal Cys) [SP9-Cy3]
effect on stimulated secretion [1]: no effect | effect on ATP-stimulated secretion [1, 5]: no effect

H2N-GRKKRRQRRRPPQEE(S5)KDA(S5)IR(S5)LVM(S5)DEQ-(C/Cy3Mal)-amide (H-GRKKRRQRRRPPQEE[S5]KDA[S5]IR[S5]LVM[S5]DEQ-{C(Cy3 maleimide)-NH2}; staple 16-20, 23-27) [TAT-SP9-Cy3]
reduction of stimulated (IL-13+ATP) Muc5ac secretion [1]: 86% | reduction of stimulated Muc5ac secretion [1, 5]: 83% | intracellular mucin content of cells that internalize the peptide ([2]; 300 μM aerosolized, left axial bronchus, IL-13 mouse, PAFS): low intracellular mucin content | mucin secretion after peptide aerosol without secretagogue ([2]; aerosolized 1 mM, left axial bronchus, IL-13 mice): extensive apocrine mucin secretion | mucin secretion of Cy3-labeled cells without a secretagogue (side-effect) ([2]; peptide introduced into airways of mice with mucous metaplasia): had secreted their mucin stores without stimulation

H2N-GRKKRRQRRRPPQEESKDAGIRTLVMLDEQ-(C/Cy3Mal)-amide (H-GRKKRRQRRRPPQEESKDAGIRTLVMLDEQ-{C(Cy3 maleimide)-NH2}) [TAT-P9-Cy3, non-stapled control peptide with TAT and Cy3, reference compound]
effect on stimulated secretion [1]: no effect

H2N-RQIKIWFQNRRMKWKKEE(S5)KDA(S5)IR(S5)LVM(S5)DEQ-(C/Cy3Mal)-amide [PEN-SP9-Cy3]
reduction of stimulated (IL-13+ATP) Muc5ac secretion [1]: 48% | reduction of stimulated Muc5ac secretion [1, 5]: 73% | reduction of fractional secretion of intracellular mucin stimulated by methacholine [3]: 82.3% | reduction of airway lumenal mucus accumulation in the right lung [4]: 33.1% | mucin secretion of Cy3-labeled cells without a secretagogue (side-effect) ([2]; mouse, in vivo): did not show this problem

H2N-RQIKIWFQNRRMKWKKEESKDAGIRTLVMLDEQ-(C/Cy3Mal)-amide (H-RQIKIWFQNRRMKWKKEESKDAGIRTLVMLDEQ-{C(Cy3 maleimide)-NH2}) [PEN-P9-Cy3, non-stapled control peptide with penetratin and Cy3, reference compound]
effect on stimulated secretion [1]: no effect | effect on fractional secretion of intracellular mucin stimulated by methacholine [3]: no effect | effect on airway lumenal mucus accumulation in the right lung [4]: no effect

B1: SP1 (peptide)
peptide: Ac-SKD[S5]GIR[S5]LVMLDE[S5]GEQ[S5]DR-NH2
modifications: staple 15-19, 4-8
SMILES: CC[C@H](C)[C@@H]1NC(=O)CNC(=O)[C@@](C)(NC(=O)[C@H](CC(=O)O)NC(=O)[C@H](CCCCN)NC(=O)[C@H](CO)NC(C)=O)CCCC=CCCC[C@@](C)(C(=O)N[C@@H](CC(C)C)C(=O)N[C@H](C(=O)N[C@@H](CCSC)C(=O)N[C@@H](CC(C)C)C(=O)N[C@@H](CC(=O)O)C(=O)N[C@@H](CCC(=O)O)C(=O)N[C@@]2(C)CCCC=CCCC[C@@](C)(C(=O)N[C@@H](CC(=O)O)C(=O)N[C@@H](CCCNC(=N)N)C(N)=O)NC(=O)[C@H](CCC(N)=O)NC(=O)[C@H](CCC(=O)O)NC(=O)CNC2=O)C(C)C)NC(=O)[C@H](CCCNC(=N)N)NC1=O
inhibition of Ca2+-independent fusion probability, single vesicle content mixing with airway epithelial SNAREs and Syt2 (Syt2): ≤ 40% | inhibition of Ca2+-triggered cumulative fusion probability, single vesicle content mixing with airway epithelial SNAREs and Syt2 (Syt2): ≤ 70%

B2: SP4 (peptide)
peptide: Ac-SKDA[S5]IRT[S5]VM[S5]DEQ[S5]EQL-NH2
modifications: staple 12-16, 5-9
SMILES: CC[C@H](C)[C@@H]1NC(=O)[C@@](C)(NC(=O)[C@H](C)NC(=O)[C@H](CC(=O)O)NC(=O)[C@H](CCCCN)NC(=O)[C@H](CO)NC(C)=O)CCCC=CCCC[C@@](C)(C(=O)N[C@H](C(=O)N[C@@H](CCSC)C(=O)N[C@@]2(C)CCCC=CCCC[C@@](C)(C(=O)N[C@@H](CCC(=O)O)C(=O)N[C@@H](CCC(N)=O)C(=O)N[C@@H](CC(C)C)C(N)=O)NC(=O)[C@H](CCC(N)=O)NC(=O)[C@H](CCC(=O)O)NC(=O)[C@H](CC(=O)O)NC2=O)C(C)C)NC(=O)[C@H]([C@@H](C)O)NC(=O)[C@H](CCCNC(=N)N)NC1=O
inhibition of Ca2+-independent fusion probability, single vesicle content mixing with airway epithelial SNAREs and Syt2 (Syt2): ≤ 40% | inhibition of Ca2+-triggered cumulative fusion probability, single vesicle content mixing with airway epithelial SNAREs and Syt2 (Syt2): ≤ 70%

B3: SP10 (peptide)
peptide: Ac-SKD[S5]GIR[S5]LV[S5]LDE[S5]GEQL-NH2
modifications: staple 11-15, 4-8
SMILES: CC[C@H](C)[C@@H]1NC(=O)CNC(=O)[C@@](C)(NC(=O)[C@H](CC(=O)O)NC(=O)[C@H](CCCCN)NC(=O)[C@H](CO)NC(C)=O)CCCC=CCCC[C@@](C)(C(=O)N[C@@H](CC(C)C)C(=O)N[C@H](C(=O)N[C@@]2(C)CCCC=CCCC[C@@](C)(C(=O)NCC(=O)N[C@@H](CCC(=O)O)C(=O)N[C@@H](CCC(N)=O)C(=O)N[C@@H](CC(C)C)C(N)=O)NC(=O)[C@H](CCC(=O)O)NC(=O)[C@H](CC(=O)O)NC(=O)[C@H](CC(C)C)NC2=O)C(C)C)NC(=O)[C@H](CCCNC(=N)N)NC1=O
inhibition of Ca2+-independent fusion probability, single vesicle content mixing with airway epithelial SNAREs and Syt2 (Syt2): ≤ 40% | inhibition of Ca2+-triggered cumulative fusion probability, single vesicle content mixing with airway epithelial SNAREs and Syt2 (Syt2): ≤ 70%

B4: SP9 (peptide)
peptide: Ac-EE[S5]KDA[S5]IR[S5]LVM[S5]DEQC-NH2
modifications: staple 10-14, 3-7
SMILES: CC[C@H](C)[C@H](NC(=O)[C@]1(C)CCCC=CCCC[C@](C)(NC(=O)[C@H](CCC(=O)O)NC(=O)[C@H](CCC(=O)O)NC(C)=O)C(=O)N[C@@H](CCCCN)C(=O)N[C@@H](CC(=O)O)C(=O)N[C@@H](C)C(=O)N1)C(=O)N[C@@H](CCCNC(=N)N)C(=O)N[C@@]1(C)CCCC=CCCC[C@@](C)(C(=O)N[C@@H](CC(=O)O)C(=O)N[C@@H](CCC(=O)O)C(=O)N[C@@H](CCC(N)=O)C(=O)N[C@@H](CS)C(N)=O)NC(=O)[C@H](CCSC)NC(=O)[C@H](C(C)C)NC(=O)[C@H](CC(C)C)NC1=O
inhibition of Ca2+-independent fusion probability, single vesicle content mixing with airway epithelial SNAREs and Syt2 (Syt2): ≤ 40% | inhibition of Ca2+-triggered cumulative fusion probability, single vesicle content mixing with airway epithelial SNAREs and Syt2 (Syt2): ≤ 70%

Source: US20250163122A1, “COMPOSITIONS AND METHODS FOR TREATING AIRWAY MUCUS DYSFUNCTION” (BOARD OF REGENTS, THE UNIVERSITY OF TEXAS SYSTEM, priority 2022, published 2025)
